Patent US20190382850A1, “METHOD FOR IDENTIFYING MITOCHONDRIAL DNA IN EXTRACELLULAR VESICLES AND TREATMENT OF MTDNA-RELATED DISORDERS AND CANCER” (Memorial Sloan-Kettering Cancer Center, priority 2017, published 2019)

How the values were obtained:
Jak2 = assay: EV mtDNA copy number from CAFs in hypoxia reoxygenation ± Jak2 inhibitor; type: cell-based; conditions: 500 nM every 3 days, FIG. 14
Experimental: FIG. 14 reports that hypoxia reoxygenation culture condition increases EV mtDNA copy number in a Jak2-Stat(s) dependent manner. 10-cm plates with 10^6 cells (CAFs) were cultured in 1% O2 (hypoxia) for 4 days and 3 days in normal culture conditions (20% O2, hyperoxia) in presence/absence of Jak2 inhibitor (500 nM every 3 days). Conditioned media for EV isolation and DNA level from EVs was analyzed. As control, EVs from 20% O2, hyperoxia were also collected and analyzed. MtDNA as copy number is shown as bar graphs, mean±error bars of ND1 level obtained from EV-DNA (10 ng total DNA).

[1] = tested on: ND1 DNA in EVs from patients; assay: mtDNA ND1 level (qPCR) in circulating EVs of patients before and after therapy; type: in vivo, human; conditions: FIG. 7d
Experimental: (Panel a), Dot plot of nuclear DNA copy number quantification as determined by qPCR for GAPDH gene in circulating EVs isolated from fresh collected plasma (5-8 ml) of 8 healthy controls and 20 luminal breast cancer patients at different stage of their disease (Table 5). Each point corresponds to a patient sample. (Panel b), Schematic and gel electrophoresis of whole mtDNA genome amplified in several patient derived circulating EV-DNA resulting from 46 overlapping PCR amplicons to cover all the mtDNA genome. (Panel c), mtDNA ND1 level change (Ct qPCR value from 2 ng of total EV-DNA) determined in the same patient (two different examples are reported) following time and therapy response (PR, partial response; Stable Disease; POD, progression of disease); (Panel d) mtDNA ND1 level change (Ct qPCR value from 2 ng of total EV-DNA) determined in two different patients (#1, #2) before and after a certain therapy. Data are reported as error bars, mean±s.d. of n=3 independent experiments. […]
DNA and cDNAs were amplified by quantitative PCR (qPCR) using the Applied Biosystem Viia™ 7 Real-Time PCR System in the Power SYBR® Green PCR Master Mix Buffer. […] For analysis, ΔΔct method was applied and fold change was calculated (2^−ΔΔct). […]

mu-mtDNAhi HTR cells = assay: Proliferation in presence of OXPHOS inhibitors ± HT; type: cell-based, human; conditions: with and without fulvestrant; atovaquone 1 μM, rotenone 100 nM, oligomycin 200 nM; FIG. 2f, 8e
Excerpt: (Panel a) Representative tumor growth kinetics (BLI) of GFP+/Luciferase+MCF7 xenografts (n=10) treated with weekly fulvestrant once mammary fat pad tumors were established (after 3 months) which led to a period (4 months) of disease stability on HT (HTS) followed by exponential growth on HT (HTR). Representative H&E images of tumors and primary cultures from unsorted as well as FACS purified cancer cells (GFP+/Epcam+) and murine CAFs (GFP−/Epcam). Scale bar 20 μm. (Panel b) OXPHOS potential in tumor-derived cancer cells (panel a) was measured±HT (fulvestrant, 10 μM) by Seahorse. […] (Panel d) Percentage of metastatic lesions isolated by FACS from tumor-bearing mice (n=8/group) expressing murine mtDNA as determined by ND1 qPCR (2 ng of total DNA). Oxygen consumption rates (OCR) in murine-mtDNApos and ctrl HTR cells determined by Seahorse. (Panel e) Murine mitochondrial RNA expression (12 genes: ND1, ND2, COX2, ATP8, ATP6, COX3, ND3, ND4L, ND4, ND5, ND6, CytB) as fold change (logioscale) determined by qRT-PCR in HTR and HTS cells (panel a). […]
FIG. 8 reports that OXPHOS inhibition abrogates HTR disease. (Panel a), Proliferation potential as determined by in vitro cell growth (CalceinAM) in luminal (ER+) and triple negative cancer cell lines cultured in media with increasing concentration of glucose. […]

HTS cells = assay: as above; type: cell-based, human; conditions: with and without fulvestrant
Experimental: FIG. 8 reports that OXPHOS inhibition abrogates HTR disease. (Panel a), Proliferation potential as determined by in vitro cell growth (CalceinAM) in luminal (ER+) and triple negative cancer cell lines cultured in media with increasing concentration of glucose. (Panel b), Oxygen consumption rates (OCR)±oligomycin (200 nM)/rotenone (100 nM) in MCF7 and MDA-MB-231 cells as determined by seahorse technology. (Panel c), Desmin immunohistochemical images of CAFs in HTS/HTR-derived tissues (scale bar 25 μm). (Panel d), Schematic analysis of the generation of metastatic HTR disease in mice. […] Metastatic burden was analyzed by BLI and at necropsy by histological examination (H&E). (Panel e), Proliferation potential in presence of oligomycin (100 nM) and ±HT as determined by in vitro BLI in metastatic cells from HTS and HTR cells FACS purified from xenografts (FIG. 2a). […] (Panel f), mtDNA/nDNA level in circulating EVs from HTR xenografts as determined by copy number (GAPDH, ND1: qPCR Fold change). […]
For immunoblotting assays, cells were lysed in buffer (50 mmol/L Tris at pH 7.5, 150 mmol/L NaCl, 5 μg/mL aprotinin, pepstatin, 1% NP-40, lmmol/L EDTA, 0.25% deoxycholate, and protease inhibitor cocktail tablet, Sigma). […] The enrichment of CAFs in xenografts was determined by desmin immunohistochemistry (IHC) in tumor-derived sections. […]

Q: With `Cc1cc(Nc2nc(N[C@@H](C)c3ncc(F)cn3)ncc2Cl)[nH]n1` [AZD 1490] as the compound, how does the “generation of mtDNA high EVs” value (Jak2) read?
A: hampering the generation of mtDNA high EVs

Q: With `COc1cccc2c1C(=O)c1c(O)c3c(c(O)c1C2=O)C[C@@](O)(C(=O)CO)C[C@@H]3O[C@H]1C[C@H](N)[C@H](O)[C@H](C)O1` [Doxorubicin] as the compound, how does the “ND1 DNA level in EVs from patients receiving the therapy” value [1] read?
A: higher

Q: `CC[C@H]1/C=C/C=C/C[C@@H](C)[C@H](O)[C@@](C)(O)C(=O)[C@@H](C)[C@H](O)[C@@H](C)C(=O)[C@@H](C)[C@H](O)[C@@H](C)/C=C/C(=O)O[C@@H]2[C@H](C)[C@H](CC1)O[C@]1(CC[C@H](C)[C@H](C[C@@H](C)O)O1)[C@H]2C` [oligomycin] was tested. Which “sensitivity of HTR cells to HT (proliferation)” value (mu-mtDNAhi HTR cells) did it give?
A: re-sensitized HTR cells to HT

Q: What about the “combined effect with HT on cell proliferation and/or cell death of HTS cells” value (HTS cells) of the same compound?
A: no synergistic effect

Q: Which “sensitivity of HTR cells to HT (proliferation)” value (mu-mtDNAhi HTR cells) does the source give for `C=C(C)[C@H]1Cc2c(ccc3c2O[C@@H]2COc4cc(OC)c(OC)cc4[C@@H]2C3=O)O1` [rotenone] here?
A: re-sensitized HTR cells to HT

Q: What about the “combined effect with HT on cell proliferation and/or cell death of HTS cells” value (HTS cells) of the same compound?
A: no synergistic effect
